US20220401343A1, “ORAL CARE COMPOSITIONS FOR GUM HEALTH” (The Procter & Gamble Company, priority 2020, published 2022)

Assays:
[1] = tested on: Primary Human Gingival Fibroblasts (HGF); assay: Test 1: In-Vitro Human Gingival Fibroblasts Soluble Collagen Assay (Sircol); format: cell-based; conditions: for increase in collagen productivity vs. base control: Table 7 data, difference to base control
Method: Stage 1: Culturing Primary Human Gingival Fibroblasts (“HGF”): Primary Human Gingival Fibroblasts (“HGF”) were collected from tooth extraction patients and washed with 5 mL of PBS (phosphate buffered saline). The tissues were chopped into small pieces and placed into 15 mL centrifuge tube. The samples were digested with equal amounts of 1 mL 8% dispase and 1 mL 6% collagenase for 1 hr at 37° C., during which time the samples need to be shaken every 15 minutes. Once the digestion process was complete, the tube was centrifuged at 1100 r.p.m. for 6 minutes at room temperature. After centrifugation, a pellet of cells was formed in the bottom of the tube separating them from the supernatant solution. Then the supernatant was discarded and the cell pellet was suspended in 3 mL of fresh Minimum Essential Medium (“MEM”, available from Thermo Fisher) culture medium then transferred to a petri dish. The petri dish with cells were placed in the incubator at 37° C. with 5% CO2 for about 10 days. The petri dish was checked for changes in medium color every two days. Fresh culture medium was replaced if changes in medium color occurred.
Stage 2: Treatment with Compositions: Sub-Culturing Human Gingival Fibroblasts: When there was 80-90% cell monolayer coverage of the petri dish, the present culture medium was removed and washed with 5 mL of PBS. 1 mL 0.25% trypsin-EDTA solution was added and the cells sat for about 1-2 minutes at 37° C. until the cells were visibly round-shaped. It was occasionally necessary to tap the petri dish to remove any sticky cells from the petri dish surface. At least 1 mL of fresh MEM culture medium was added to inactivate the trypsin and the cells are collected into a 15 mL centrifuge tube. The tube was then centrifuged at 1100 r.p.m. for 6 minutes at room temperature. The supernatant was discarded and cell pellet is re-suspend-ed in 4 mL of fresh MEM culture medium in the same centrifuge tube. Petri dishes were each placed with 1 mL cell suspension and 9 mL fresh MEM culture medium in the incubator at 37° C. with 5% CO2 for about 3-5 days until 80-90% cell monolayer coverage on the petri dishes was observed.
When there was 80-90% cell monolayer coverage on the petri dishes, cells were re-suspended in 6 mL of fresh MEM culture medium. 1 mL cell suspension and 1 mL fresh MEM culture medium were respectively added into each well of a 6-well plate. The cells were further washed with 2 mL PBS to remove any suspended cells until no suspended cells are visible. […] Cells were maintained in the incubator at 37° C. with 5% CO2 for 72 hours.
Stage 3 Soluble Collagen Assay: Soluble collagen (types I to V) levels were measured by Sircol collagen assay kit (available from Biocolor, UK). After treatment, cells were washed two times with chilled PBS and homogenized with 6M urea. The cell homogenates were centrifuged at 15,000 r.p.m. for 15 min. 100 μL of the supernatant was mixed with 1 mL of Sircol Dye Reagent for 30 minutes. During this time period, a collagen-dye complex formed and precipitated out from the soluble unbound dye. The tubes were transferred to a microcentrifuge and spun at 12,000 r.p.m. for 10 minutes. The tubes were carefully inverted and drained. 750 μL ice-cold Acid-Salt Wash Reagent was gently added to the collagen-dye pellet to remove unbound dye from the surface of the pellet and the inside surface of the microcentrifuge tube. The tube was then centrifuged at 12,000 r.p.m. for 10 minutes. The supernatant was drained into a waste container and any fluid from the lip of the tubes was removed using cotton wool buds. 250 μL of Alkali Reagent was added to each tube to fully release the collagen bound dye. 200 μL of each sample was transferred to individual wells of a 96 micro well plate, keeping a record map of the contents of each well from A1 to H12.

[2] = tested on: collagen genes COL1A1 and COL1A2 in skin dermis; assay: Compound Screening on Skin Dermis: collagen gene expression (microarray) after topical treatment; format: in vivo, human; conditions: dorsal forearm twice daily, four weeks, vs vehicle, retinol at 0.2%, Pal-KTTKS at 100 ppm, p-value in brackets in the cell
Excerpt: To screen compounds, 30 to 40 female subjects with Fitzpatrick skin types I-III, aged 60-70. At Baseline, each subject was assigned to test each treatment. The products were applied to the dorsal forearm twice daily. Topical treatment with a minimally efficacious moisturizer was used as the vehicle for each test compound and as the negative control.
After four weeks of treatment, one 4-mm punch biopsy was taken from each treated site. The dermis was separated and snap-frozen in liquid nitrogen and stored at −80° C. until assayed. The frozen tissue was then processed for gene expression analysis. To determine gene expression levels, RNA was extracted, labeled with biotin, hybridized and analyzed using Affymetrix GeneTitan® U219 microarray plates according to the manufacturer's instructions.
For genomics analysis, microarray sample quality was assessed using principal components analysis and MA-plots. Treatment to negative control comparisons for the microarray data were assessed using ANOVA models fitted separately for each probe set. ANOVA model hypothesis tests were evaluated using the Empirical Bayes method available in the limma R package. A p-value cutoff of 0.05 or less was consider statistically significant.

[3] = Table 5, 1% composition in culture medium, 72 hours

Compound | increase in collagen productivity vs. base control [1] | COL1A1 LFC (Log base 2 of the average Fold Change) [2] | COL1A2 LFC (Log base 2 of the average Fold Change) [2] | COL1A1 LFC (Log base 2 of the average Fold Change) ([2]; listed as retinol) | COL1A2 LFC (Log base 2 of the average Fold Change) ([2]; listed as retinol) | Collagen Productivity (Collagen/Cell) [1, 3] | Total Cell Count Cell [1, 3] | Total Collagen ([1]; Table 5, retinoids at 20 ppm in composition, 1% composition in culture medium, 72 hours) | Collagen Productivity (Collagen/Cell) ([1]; Table 6, 1:100 dilution) | Total Cell Count Cell ([1]; Table 6, 1:100 dilution) | Collagen Productivity ([1]; Table 7, 1:100 dilution) | Total Cell Count Cell ([1]; Table 7, 1:100 dilution) | Total Collagen ([1]; Table 7, 1:100 dilution) | Collagen Productivity (Collagen/Cell) ([1]; Table 9, 1:50 dilution) | Total Cell Count Cell ([1]; Table 9, 1:50 dilution) | Total Collagen ([1]; Table 9, 1:50 dilution)
CC1=C(/C=C/C(C)=C/C=C/C(C)=C/CO)C(C)(C)CCC1 [Retinol, retinol] | 0.30 | −0.10 (0.93) | −0.022 (0.88) | did not demonstrate significant regulation | did not demonstrate significant regulation | – | – | – | – | – | – | – | – | – | – | –
TGF-B | – | – | – | – | – | 5.17 | 2.60 ×10^5 | 13.44 ug/100 ul | 4.86 | 2.72 ×10^5 | 4.86 ug per 10^5 cells/100 ul | 2.72 ×10^5 | 13.24 ug/100 ul | 5.17 | 2.60 ×10^5 | 13.44 ug/100 ul
palmitoyl-lys-thr-thr-lys-ser [Pal-KTTKS] | 0.24 | – | – | – | – | – | – | – | – | – | – | – | – | – | – | –
